Results taken from PubChem BioAssay AID1963841 (Molecular Pharmacology Branch, DTP, NCI, 2024).
Values joined by “and” are separate entries in the source; they are usually repeats but may differ in a detail not shown here. Equal values may be shown once.

Tested on: 439559-082-T-J2-PDC spheroid viability
Experiment: Anticancer human tumor 439559-082-T-J2-PDC patient-derived colon adenocarcinoma cell line growth inhibition [POLQ]
Details: spheroids with HUVEC and MSC; for viability, T/C: stronger effect = lower value
Outline: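 Three-cell-type spheroids modelling solid tumor plus stroma served as the readout system; POL inhibitors were tested individually and in combination, concentration ranges set by clinical Cmax where known.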
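Note: spheroids exposed to compounds for seven days before readout.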
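Throughout, for viability, T/C: 100% = DMSO vehicle control viability.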

## O=C(c1cc(Cc2n[nH]c(=O)c3ccccc23)ccc1F)N1CCN(C(=O)C2CC2)CC1
Compound 0.0316 µM
  viability, T/C: 88.1% and 67.6% and 87.6%
Curve of compound
  IC50: > 10000 nM

## Nc1ccn(C2OC(CO)C(O)C2(F)F)c(=O)n1 (stereo not drawn)
Compound 0.0316 µM
  viability, T/C: 84.5% and 77.1% and 81%
Compound 0.1 µM
  viability, T/C: 68.2% and 74.4% and 72%
Compound 0.316 µM
  viability, T/C: 58.2% and 59% and 56.6%
Compound 1 µM
  viability, T/C: 49.8% and 43.5% and 39.9%
Compound 3.16 µM
  viability, T/C: 36.5% and 35.1% and 30.8%
Compound 10 µM
  viability, T/C: 31.1% and 26.7% and 27.3%
Curve of compound
  IC50: 767 nM and 656 nM and 496 nM

## COc1cccc(OCCCN)c1-c1cc(Nc2cnc(C#N)cn2)n[nH]1 + COC1C(OC(N)=O)C(O)C(Oc2ccc3c(O)c(NC(=O)c4ccc(O)c(CC=C(C)C)c4)c(=O)oc3c2C)OC1(C)C
Curve of first compound, second compound 0.0316 µM
  IC50: 142 nM
Curve of first compound, second compound 0.1 µM
  IC50: 158 nM
Curve of first compound, second compound 0.316 µM
  IC50: 145 nM
Curve of first compound, second compound 1 µM
  IC50: 109 nM
Curve of first compound, second compound 3.16 µM
  IC50: 133 nM
Curve of first compound, second compound 10 µM
  IC50: 128 nM
Second compound 0.0316 µM, first compound 0.00316 µM
  viability, T/C: 87%
Second compound 0.0316 µM, first compound 0.01 µM
  viability, T/C: 88.1%
Second compound 0.0316 µM, first compound 0.0316 µM
  viability, T/C: 70.1%
Second compound 0.0316 µM, first compound 0.1 µM
  viability, T/C: 61.4%
Second compound 0.0316 µM, first compound 0.316 µM
  viability, T/C: 31.3%
Second compound 0.0316 µM, first compound 1 µM
  viability, T/C: 17.4%
Second compound 0.1 µM, first compound 0.00316 µM
  viability, T/C: 98.5%
Second compound 0.1 µM, first compound 0.01 µM
  viability, T/C: 82%
Second compound 0.1 µM, first compound 0.0316 µM
  viability, T/C: 76.4%
Second compound 0.1 µM, first compound 0.1 µM
  viability, T/C: 65.3%
Second compound 0.1 µM, first compound 0.316 µM
  viability, T/C: 30.9%
Second compound 0.1 µM, first compound 1 µM
  viability, T/C: 18.3%
Second compound 0.316 µM, first compound 0.00316 µM
  viability, T/C: 94.6%
Second compound 0.316 µM, first compound 0.01 µM
  viability, T/C: 90.3%
Second compound 0.316 µM, first compound 0.0316 µM
  viability, T/C: 72.3%
Second compound 0.316 µM, first compound 0.1 µM
  viability, T/C: 62%
Second compound 0.316 µM, first compound 0.316 µM
  viability, T/C: 31.7%
Second compound 0.316 µM, first compound 1 µM
  viability, T/C: 19.1%
Second compound 1 µM, first compound 0.00316 µM
  viability, T/C: 105%
Second compound 1 µM, first compound 0.01 µM
  viability, T/C: 82.1%
Second compound 1 µM, first compound 0.0316 µM
  viability, T/C: 72.6%
Second compound 1 µM, first compound 0.1 µM
  viability, T/C: 52.9%
Second compound 1 µM, first compound 0.316 µM
  viability, T/C: 31.8%
Second compound 1 µM, first compound 1 µM
  viability, T/C: 16.4%
Second compound 3.16 µM, first compound 0.00316 µM
  viability, T/C: 102%
Second compound 3.16 µM, first compound 0.01 µM
  viability, T/C: 85.6%
Second compound 3.16 µM, first compound 0.0316 µM
  viability, T/C: 73.6%
Second compound 3.16 µM, first compound 0.1 µM
  viability, T/C: 59.1%
Second compound 3.16 µM, first compound 0.316 µM
  viability, T/C: 30.9%
Second compound 3.16 µM, first compound 1 µM
  viability, T/C: 18.2%
Second compound 10 µM, first compound 0.00316 µM
  viability, T/C: 103%
Second compound 10 µM, first compound 0.01 µM
  viability, T/C: 86.8%
Second compound 10 µM, first compound 0.0316 µM
  viability, T/C: 77%
Second compound 10 µM, first compound 0.1 µM
  viability, T/C: 56.4%
Second compound 10 µM, first compound 0.316 µM
  viability, T/C: 30.5%
Second compound 10 µM, first compound 1 µM
  viability, T/C: 17.5%

## CC(=O)O[C@H]1C(=O)[C@@]2(C)[C@H]([C@H](OC(=O)c3ccccc3)[C@]3(O)C[C@H](OC(=O)[C@H](O)[C@@H](NC(=O)c4ccccc4)c4ccccc4)C(C)=C1C3(C)C)[C@]1(OC(C)=O)CO[C@@H]1C[C@@H]2O
Compound 0.0949 µM
  viability, T/C: 83% and 81.7% and 82.3%
Compound 0.3 µM
  viability, T/C: 77.9% and 70.6% and 74.8%
Compound 0.949 µM
  viability, T/C: 68.7% and 51.8% and 55.5%
Compound 3 µM
  viability, T/C: 43.4% and 22.5% and 40.4%
Curve of compound
  IC50: 2240 nM and 1180 nM and 1440 nM

## O=c1[nH]cc(F)c(=O)[nH]1
Compound 0.0316 µM
  viability, T/C: 94.6% and 117% and 96.9%
Compound 0.1 µM
  viability, T/C: 95% and 114% and 94.2%
Compound 0.316 µM
  viability, T/C: 83.6% and 86.3% and 81%
Compound 1 µM
  viability, T/C: 76.2% and 90.7% and 73%
Compound 3.16 µM
  viability, T/C: 71.1% and 87% and 72.8%
Compound 10 µM
  viability, T/C: 68.4% and 78.9% and 71.5%
Curve of compound
  IC50: > 10000 nM

## CCc1c2c(nc3ccc(O)cc13)-c1cc3c(c(=O)n1C2)COC(=O)[C@]3(O)CC
Compound 0.00316 µM
  viability, T/C: 95.8% and 83.5% and 94.6%
Compound 0.01 µM
  viability, T/C: 85% and 74.5% and 81%
Compound 0.0316 µM
  viability, T/C: 71.9% and 75.1% and 71.4%
Compound 0.1 µM
  viability, T/C: 72.1% and 79.6% and 64.2%
Compound 0.316 µM
  viability, T/C: 63.3% and 81% and 57.8%
Compound 1 µM
  viability, T/C: 40.5% and 58.2% and 35.7%
Curve of compound
  IC50: 627 nM and > 1000 nM and 375 nM

## C=CC(=O)N1CCN(c2nc(=O)n(-c3c(C)ccnc3C(C)C)c3nc(-c4c(O)cccc4F)c(F)cc23)C(C)C1 (stereo not drawn)
Compound 0.0316 µM
  viability, T/C: 93% and 88.6% and 99.7%
Compound 0.1 µM
  viability, T/C: 91.5% and 84.4% and 100%
Compound 0.316 µM
  viability, T/C: 95.6% and 90.7% and 99.1%
Compound 1 µM
  viability, T/C: 96.8% and 92.5% and 105%
Compound 3.16 µM
  viability, T/C: 97.7% and 80.5% and 99.9%
Compound 10 µM
  viability, T/C: 98.6% and 103% and 108%
Curve of compound
  IC50: > 10000 nM

## COc1cccc2c1C(=O)c1c(O)c3c(c(O)c1C2=O)CC(O)(C(=O)CO)CC3OC1CC(N)C(O)C(C)O1 (stereo not drawn)
Compound 0.0316 µM
  viability, T/C: 94.9% and 90.3% and 99.1%
Compound 0.1 µM
  viability, T/C: 86.6% and 79.9% and 96.6%
Compound 0.316 µM
  viability, T/C: 79.8% and 66.8% and 88%
Compound 1 µM
  viability, T/C: 72.6% and 63.7% and 70.9%
Compound 3.16 µM
  viability, T/C: 65% and 58.3% and 60.4%
Compound 10 µM
  viability, T/C: 52.5% and 69.4% and 49.1%
Curve of compound
  IC50: > 10000 nM and 9810 nM

## O=C(Nc1ccc(O)c(NS(=O)(=O)c2ccc(F)cc2)c1)c1ccc(-c2ccccc2)cc1
Compound 0.0316 µM
  viability, T/C: 91% and 95.6% and 94.9%
Compound 0.1 µM
  viability, T/C: 95.3% and 90.8% and 94.3%
Compound 0.316 µM
  viability, T/C: 87.2% and 100% and 98.6%
Compound 1 µM
  viability, T/C: 97.2% and 96.6% and 96.2%
Compound 3.16 µM
  viability, T/C: 112% and 107% and 106%
Compound 10 µM
  viability, T/C: 105% and 102% and 101%
Curve of compound
  IC50: > 10000 nM

## COc1cc(C2c3cc4c(cc3C(OC3OC5COC(C)OC5C(O)C3O)C3COC(=O)C23)OCO4)cc(OC)c1O (stereo not drawn)
Compound 0.0316 µM
  viability, T/C: 92.4% and 99.3% and 94.1%
Compound 0.1 µM
  viability, T/C: 95.6% and 95.3% and 97.8%
Compound 0.316 µM
  viability, T/C: 92.7% and 82% and 98.2%
Compound 1 µM
  viability, T/C: 90.5% and 88.4% and 95.4%
Compound 3.16 µM
  viability, T/C: 82.1% and 81.8% and 89.5%
Compound 10 µM
  viability, T/C: 73.7% and 72.7% and 70.3%
Curve of compound
  IC50: > 10000 nM
